Results as given in patent US5488035A (priority 1991, dated 1996).
Read-outs that look alike come from different tables or passages of the source. Bridge positions count the residues as written; N and C are the ends. Peptide text beside a SMILES is read from it.

Legend:
Type in all cases: cell-based
[1] = tested on: AFL 001 (Aspergillus flavus); test: Minimum inhibitory concentration; conditions: for MIC AFL 001: MIC Comparisons; for Dependence of MIC on buffer pH, AFL 001: buffer pHs of from 5.0 to 8.0
Description: Decreasing tested concentrations of tachyplesin were against the preceding four organisms plus Fusarium moniliforme and Sclerotinia sclerotiorum to determine the minimum inhibitory concentration, and this was compared with other antimicrobial compounds. Results were as follows:
The MICs of tachyplesin, defensin and hordothionin (μg/ml) were measured against FGR 008 and AFL 001 across a range of buffer pHs and ionic strengths to determine their suitability as plant antimicrobials under varying conditions.

[2] = tested on: FMO 001 (Fusarium moniliforme); test: Minimum inhibitory concentration; conditions: MIC Comparisons
From the text: (§1) Decreasing tested concentrations of tachyplesin were against the preceding four organisms plus Fusarium moniliforme and Sclerotinia sclerotiorum to determine the minimum inhibitory concentration, and this was compared with other antimicrobial compounds.

[3] = tested on: SSC 002 (Sclerotinia sclerotiorum); test: Minimum inhibitory concentration; conditions: MIC Comparisons
From the text: as §1

[4] = tested on: FGR 008 (Fusarium graminearum)
[5] = tested on: FGR 005 (Fusarium graminearum); conditions: MIC Comparisons
[6] = tested on: Sclerotinia trifoliorum, isolate 1; test: Antifungal activity score; conditions: Example 1, 100 μg/ml
Description: The tachyplesin was used at a concentration of 100 μg/ml as determined by absorption spectrum was screened against four common plant pathogens in both crude and oxidized forms. Antifungal activity was scored on a scale of 0 to 4, with 0 being no inhibition observed relative to a water control, and 4 being complete inhibition. Two reps were done for each treatment.

[7] = tested on: Fusarium graminearum, isolate 8 (FGR 008); conditions: Example 2, scale 0-4
[8] = tested on: FMO 001 (Fusarium moniliforme); test: Antifungal activity score, decreasing concentrations; conditions: Example 2, scale 0-4
Description: (§2) The tachyplesin was used at a concentration of 100 μg/ml as determined by absorption spectrum was screened against four common plant pathogens in both crude and oxidized forms. Antifungal activity was scored on a scale of 0 to 4, with 0 being no inhibition observed relative to a water control, and 4 being complete inhibition. Two reps were done for each treatment. Results were as follows:
as §1

[9] = tested on: SSC ascospores (Sclerotinia sclerotiorum); test: as above; conditions: Example 2, scale 0-4
Description: as §2, §1

[10] = tested on: Aspergillus flavus, isolate 1 (AFL 001); test: as above; conditions: Example 2, scale 0-4
Description: as §2, §1

[11] = tested on: SSC 002 (Sclerotinia sclerotiorum); test: as above; conditions: Example 2, scale 0-4
Description: as §2, §1

[12] = tested on: Fusarium graminearum, isolate 5 (FGR 005); conditions: for Score (antifungal activity), Fusarium graminearum, isolate 5: Example 1, 100 μg/ml; for Score FGR 005: Example 2, scale 0-4

Compound: CC[C@H](C)[C@@H]1NC(=O)CNC(=O)[C@H](CCCNC(=N)N)NC(=O)[C@H](Cc2ccc(O)cc2)NC(=O)[C@@H]2CSSC[C@H](NC1=O)C(=O)N[C@@H](Cc1ccc(O)cc1)C(=O)N[C@@H](CCCNC(=N)N)C(=O)N[C@@H](CCCNC(=N)N)C(=O)N[C@H](C(=O)N[C@@H](CCCNC(=N)N)C(=O)O)CSSC[C@H](NC(=O)[C@H](Cc1c[nH]c3ccccc13)NC(=O)[C@@H](N)CCCCN)C(=O)N[C@@H](Cc1ccccc1)C(=O)N[C@@H](CCCNC(=N)N)C(=O)N[C@@H](C(C)C)C(=O)N2 [tachyplesin] (H-KWCFRVCYRGICYRRCR-OH; disulfide 3-16, 7-12; N-terminus assumed)
- MIC AFL 001 ([1]; value before parentheses): 6.25 µg/mL
- MIC AFL 001 ([1]; value in parentheses): 2.8 µM
- Dependence of MIC on buffer pH, AFL 001 [1]: None of the antimicrobials showed a discernible trend or optimum
- MIC FMO 001 ([2]; value before parentheses): 6.25 µg/mL
- MIC FMO 001 ([2]; value in parentheses): 2.8 µM
- MIC SSC 002 ([3]; value before parentheses): 12.5 µg/mL
- MIC SSC 002 ([3]; value in parentheses): 5.6 µM
- Dependence of MIC on buffer pH, FGR 008 [4]: None of the antimicrobials showed a discernible trend or optimum

Compound: CMIII
- MIC AFL 001 ([1]; value before parentheses): 60 µg/mL
- MIC AFL 001 ([1]; value in parentheses): 15 µM
- MIC FMO 001 ([2]; value before parentheses): 18.2 µg/mL
- MIC FMO 001 ([2]; value in parentheses): 4.6 µM
- MIC SSC 002 ([3]; value before parentheses): 24 µg/mL
- MIC SSC 002 ([3]; value in parentheses): 6 µM

Compound: hordothionin
- MIC AFL 001 ([1]; value before parentheses): 15 µg/mL
- MIC AFL 001 ([1]; value in parentheses): 3 µM
- Dependence of MIC on buffer pH, AFL 001 [1]: None of the antimicrobials showed a discernible trend or optimum
- MIC FMO 001 ([2]; value before parentheses): 45 µg/mL
- MIC FMO 001 ([2]; value in parentheses): 9 µM
- MIC SSC 002 ([3]; value before parentheses): 30 µg/mL
- MIC SSC 002 ([3]; value in parentheses): 6 µM
- Dependence of MIC on buffer pH, FGR 008 ([4]; buffer pHs of from 5.0 to 8.0): None of the antimicrobials showed a discernible trend or optimum
- MIC FGR 005 ([5]; value before parentheses): 5 µg/mL
- MIC FGR 005 ([5]; value in parentheses): 1 µM

Compound: tachyplesin [tachyplesin crude]
- Score (antifungal activity), Sclerotinia trifoliorum, isolate 1 [6]: 4.0
- Score FGR 008 ([7]; 1.56 μg/ml (0.7 μM)): 0.0
- Score FGR 008 ([7]; 3.13 μg/ml (1.4 μM)): 0.0
- Score FGR 008 ([7]; 6.25 μg/ml (2.8 μM)): 0.0
- Score FGR 008 ([7]; 12.5 μg/ml (5.6 μM)): 3.75
- Score FGR 008 ([7]; 25 μg/ml (11.1 μM)): 4.0
- Score FGR 008 ([7]; 50 μg/ml (22.2 μM)): 4.0
- Score FGR 008 ([7]; 100 μg/ml (44.4 μM)): 4.0
- Score FMO 001 ([8]; 1.56 μg/ml (0.7 μM)): 0.0
- Score FMO 001 ([8]; 3.13 μg/ml (1.4 μM)): 0.0
- Score FMO 001 ([8]; 6.25 μg/ml (2.8 μM)): 0.5
- Score FMO 001 ([8]; 12.5 μg/ml (5.6 μM)): 1.25
- Score FMO 001 ([8]; 25 μg/ml (11.1 μM)): 3.75
- Score FMO 001 ([8]; 50 μg/ml (22.2 μM)): 4.0
- Score FMO 001 ([8]; 100 μg/ml (44.4 μM)): 4.0
- Score SSC ascospores ([9]; 1.56 μg/ml (0.7 μM)): 0.0
- Score SSC ascospores ([9]; 3.13 μg/ml (1.4 μM)): 0.0
- Score SSC ascospores ([9]; 6.25 μg/ml (2.8 μM)): 0.0
- Score SSC ascospores ([9]; 12.5 μg/ml (5.6 μM)): 4.0
- Score SSC ascospores ([9]; 25 μg/ml (11.1 μM)): 4.0
- Score SSC ascospores ([9]; 50 μg/ml (22.2 μM)): 4.0
- Score SSC ascospores ([9]; 100 μg/ml (44.4 μM)): 4.0
- Score AFL 001 ([10]; 1.56 μg/ml (0.7 μM)): 0.0
- Score AFL 001 ([10]; 3.13 μg/ml (1.4 μM)): 0.0
- Score AFL 001 ([10]; 6.25 μg/ml (2.8 μM)): 0.0
- Score AFL 001 ([10]; 12.5 μg/ml (5.6 μM)): 1.0
- Score AFL 001 ([10]; 25 μg/ml (11.1 μM)): 1.5
- Score AFL 001 ([10]; 50 μg/ml (22.2 μM)): 3.25
- Score AFL 001 ([10]; 100 μg/ml (44.4 μM)): 3.5
- Score SSC 002 ([11]; 1.56 μg/ml (0.7 μM)): 0.0
- Score SSC 002 ([11]; 3.13 μg/ml (1.4 μM)): 0.0
- Score SSC 002 ([11]; 6.25 μg/ml (2.8 μM)): 0.0
- Score SSC 002 ([11]; 12.5 μg/ml (5.6 μM)): 1.0
- Score SSC 002 ([11]; 25 μg/ml (11.1 μM)): 4.0
- Score SSC 002 ([11]; 50 μg/ml (22.2 μM)): 4.0
- Score SSC 002 ([11]; 100 μg/ml (44.4 μM)): 4.0
- Score (antifungal activity), Fusarium graminearum, isolate 5 [12]: 4.0
- Score FGR 005 ([12]; 1.56 μg/ml (0.7 μM)): 0.0
- Score FGR 005 ([12]; 3.13 μg/ml (1.4 μM)): 0.0
- Score FGR 005 ([12]; 6.25 μg/ml (2.8 μM)): 1.0
- Score FGR 005 ([12]; 12.5 μg/ml (5.6 μM)): 3.0
- Score FGR 005 ([12]; 25 μg/ml (11.1 μM)): 4.0
- Score FGR 005 ([12]; 50 μg/ml (22.2 μM)): 4.0
- Score FGR 005 ([12]; 100 μg/ml (44.4 μM)): 4.0

Compound: tachyplesin [tachyplesin oxidized]
- Score (antifungal activity), Sclerotinia trifoliorum, isolate 1 [6]: 4.0
- Score FGR 008 ([7]; 1.56 μg/ml (0.7 μM)): 0.0
- Score FGR 008 ([7]; 3.13 μg/ml (1.4 μM)): 0.0
- Score FGR 008 ([7]; 6.25 μg/ml (2.8 μM)): 2.0
- Score FGR 008 ([7]; 12.5 μg/ml (5.6 μM)): 4.0
- Score FGR 008 ([7]; 25 μg/ml (11.1 μM)): 4.0
- Score FGR 008 ([7]; 50 μg/ml (22.2 μM)): 4.0
- Score FGR 008 ([7]; 100 μg/ml (44.4 μM)): 4.0
- Score FMO 001 ([8]; 1.56 μg/ml (0.7 μM)): 0.0
- Score FMO 001 ([8]; 3.13 μg/ml (1.4 μM)): 0.5
- Score FMO 001 ([8]; 6.25 μg/ml (2.8 μM)): 1.0
- Score FMO 001 ([8]; 12.5 μg/ml (5.6 μM)): 2.5
- Score FMO 001 ([8]; 25 μg/ml (11.1 μM)): 4.0
- Score FMO 001 ([8]; 50 μg/ml (22.2 μM)): 4.0
- Score FMO 001 ([8]; 100 μg/ml (44.4 μM)): 4.0
- Score SSC ascospores ([9]; 1.56 μg/ml (0.7 μM)): 0.0
- Score SSC ascospores ([9]; 3.13 μg/ml (1.4 μM)): 0.0
- Score SSC ascospores ([9]; 6.25 μg/ml (2.8 μM)): 3.0
- Score SSC ascospores ([9]; 12.5 μg/ml (5.6 μM)): 4.0
- Score SSC ascospores ([9]; 25 μg/ml (11.1 μM)): 4.0
- Score SSC ascospores ([9]; 50 μg/ml (22.2 μM)): 4.0
- Score SSC ascospores ([9]; 100 μg/ml (44.4 μM)): 4.0
- Score AFL 001 ([10]; 1.56 μg/ml (0.7 μM)): 0.0
- Score AFL 001 ([10]; 3.13 μg/ml (1.4 μM)): 0.0
- Score AFL 001 ([10]; 6.25 μg/ml (2.8 μM)): 1.0
- Score AFL 001 ([10]; 12.5 μg/ml (5.6 μM)): 1.5
- Score AFL 001 ([10]; 25 μg/ml (11.1 μM)): 2.75
- Score AFL 001 ([10]; 50 μg/ml (22.2 μM)): 3.75
- Score AFL 001 ([10]; 100 μg/ml (44.4 μM)): 3.75
- Score SSC 002 ([11]; 1.56 μg/ml (0.7 μM)): 0.0
- Score SSC 002 ([11]; 3.13 μg/ml (1.4 μM)): 0.0
- Score SSC 002 ([11]; 6.25 μg/ml (2.8 μM)): 0.0
- Score SSC 002 ([11]; 12.5 μg/ml (5.6 μM)): 4.0
- Score SSC 002 ([11]; 25 μg/ml (11.1 μM)): 4.0
- Score SSC 002 ([11]; 50 μg/ml (22.2 μM)): 4.0
- Score SSC 002 ([11]; 100 μg/ml (44.4 μM)): 4.0
- Score (antifungal activity), Fusarium graminearum, isolate 5 [12]: 4.0
- Score FGR 005 ([12]; 1.56 μg/ml (0.7 μM)): 0.0
- Score FGR 005 ([12]; 3.13 μg/ml (1.4 μM)): 0.0
- Score FGR 005 ([12]; 6.25 μg/ml (2.8 μM)): 2.25
- Score FGR 005 ([12]; 12.5 μg/ml (5.6 μM)): 3.5
- Score FGR 005 ([12]; 25 μg/ml (11.1 μM)): 4.0
- Score FGR 005 ([12]; 50 μg/ml (22.2 μM)): 4.0
- Score FGR 005 ([12]; 100 μg/ml (44.4 μM)): 4.0
